Reference: patent US20230295157A1, “3-(1H-IMIDAZOL-2-YL)-2,3,8,8A-TETRAHYDROINDOLIZIN-5(1H)-ONE DERIVATIVES USEFUL AS FACTOR XIA INHIBITORS” (JANSSEN PHARMACEUTICA NV, priority 2020, published 2023)
Read-outs that look alike come from different tables or passages of the source.

What was measured:
Factor XIa = Factor XIa (Homo sapiens (Human), UniProt P03951); test: Factor XIa inhibition assay (FLINT) utilizing a fluorophore-quencher pair peptide substrate; type: biochemical; conditions: 30 min preincubation, kinetic reads over 30 min, read-out: FXIa Kin Inh IC50
In short: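 FXIa ([…]) preincubated 30 min with compound (11-point 3-fold dilution, top 100 nM, 2% DMSO), then 15 μM quenched FXI Arg146-based peptide added; Tris pH 7.5, CaCl2, BSA, CHAPS. Fluorescence 485/520 nm read kinetically every 5 min over 30 min at RT; IC50 by 4-parameter fit.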

human plasma kallikrein = human plasma kallikrein (Homo sapiens (Human), UniProt P03952); test: Kallikrein inhibition assay (FLINT) utilizing a quenched AMC peptide substrate; type: biochemical; conditions: 30 min preincubation, kinetic reads over 30 min, Z-Gly-Pro-Arg-AMC substrate 50 μM; read-out: Kallikrein Kin Inh IC50
In short: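 Enzyme (2 nM final) pre-incubated 30 min at room temperature with compound (11-point, 3-fold, top 1 μM, 2% DMSO), then 50 μM Z-Gly-Pro-Arg-AMC added in Tris pH 7.5 buffer. Kinetic fluorescence 340/440 nm every 5 min over 30 min; IC50 from 4-parameter logistic fit.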

[1] = 5Fam-[…]-K5Tamra substrate 15 μM
[2] = 5Fam-KLTRAETV-K5Tamra substrate 15 μM

Chain of human plasma kallikrein (P03952 391-638): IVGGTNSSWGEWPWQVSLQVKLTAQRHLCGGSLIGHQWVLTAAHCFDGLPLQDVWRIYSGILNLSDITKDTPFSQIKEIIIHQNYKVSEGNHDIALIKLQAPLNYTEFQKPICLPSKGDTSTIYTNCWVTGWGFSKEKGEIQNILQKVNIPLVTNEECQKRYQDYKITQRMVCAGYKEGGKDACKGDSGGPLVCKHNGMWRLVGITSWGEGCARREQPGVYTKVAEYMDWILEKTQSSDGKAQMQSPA
Chain of human plasma kallikrein (P03952 20-390 partner): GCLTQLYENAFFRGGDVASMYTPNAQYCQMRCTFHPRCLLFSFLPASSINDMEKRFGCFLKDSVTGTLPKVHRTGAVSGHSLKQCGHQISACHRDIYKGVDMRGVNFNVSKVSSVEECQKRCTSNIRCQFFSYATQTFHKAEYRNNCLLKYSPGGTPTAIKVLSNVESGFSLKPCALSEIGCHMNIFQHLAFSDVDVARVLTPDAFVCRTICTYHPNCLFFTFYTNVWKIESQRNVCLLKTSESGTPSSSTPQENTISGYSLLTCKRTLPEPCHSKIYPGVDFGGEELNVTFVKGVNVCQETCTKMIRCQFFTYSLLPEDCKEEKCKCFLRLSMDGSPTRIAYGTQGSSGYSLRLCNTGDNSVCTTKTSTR
Chain of Factor XIa (P03951 388-625): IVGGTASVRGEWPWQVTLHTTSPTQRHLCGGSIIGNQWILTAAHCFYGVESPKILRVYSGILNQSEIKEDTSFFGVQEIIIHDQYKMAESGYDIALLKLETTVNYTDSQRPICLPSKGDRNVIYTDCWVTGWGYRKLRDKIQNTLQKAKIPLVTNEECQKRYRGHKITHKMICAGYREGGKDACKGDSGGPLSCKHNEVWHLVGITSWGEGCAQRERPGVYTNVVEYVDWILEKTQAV
Chain of Factor XIa (P03951 19-387 partner): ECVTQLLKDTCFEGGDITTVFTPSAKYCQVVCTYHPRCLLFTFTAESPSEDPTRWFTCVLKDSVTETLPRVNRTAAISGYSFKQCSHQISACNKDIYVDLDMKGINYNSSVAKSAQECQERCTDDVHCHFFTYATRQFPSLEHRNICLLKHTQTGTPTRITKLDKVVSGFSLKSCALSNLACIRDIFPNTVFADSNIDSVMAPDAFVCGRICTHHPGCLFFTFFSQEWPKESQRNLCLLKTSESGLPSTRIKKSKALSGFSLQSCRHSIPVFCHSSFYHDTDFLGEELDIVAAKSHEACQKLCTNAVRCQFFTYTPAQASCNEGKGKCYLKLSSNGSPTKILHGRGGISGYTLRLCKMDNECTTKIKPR

Row | SMILES | IC50 (Factor XIa; [1]) | IC50 (human plasma kallikrein) | IC50 (Factor XIa; [2])
1 | [2H]c1c(N)nc(F)c(-c2cnc([C@@H]3CC[C@@H]4CC(c5c(-n6cnnn6)ccc(Cl)c5F)=CC(=O)N43)[nH]2)c1[2H] [Example 151, (3S,8aR)-3-[5-(6-amino-4,5-dideuterio-2-fluoro-3-pyridyl)-1H-imidazol-2-yl]-7-[3-chloro-2-fluoro-6-(tetrazol-1-yl)phenyl]-2,3,8,8a-tetrahydro-1H-indolizin-5-one] |  | 8.9 nM | 0.6 nM
2 | CN(C)c1ccc(-c2cnc([C@@H]3CCC4CC(c5c(-n6cnnn6)ccc(Cl)c5F)=CC(=O)N43)[nH]2)c(F)n1 (stereo partly drawn) [Example 315, (3S)-7-(3-Chloro-2-fluoro-6-(1H-tetrazol-1-yl)phenyl)-3-(5-(6-(dimethylamino)-2-fluoropyridin-3-yl)-1H-imidazol-2-yl)-2,3,8,8a-tetrahydroindolizin-5(1H)-one] |  | 34.8 nM | 31.1 nM
3 | O=C1C=C(c2c(-n3cnnn3)ccc(Cl)c2F)C[C@H]2CC[C@@H](c3ncc(-c4ccnc(C(F)(F)CO)c4F)[nH]3)N12 (relative stereo) [Example 160, (3*S,8aR)-7-(3-chloro-2-fluoro-6-(1H-tetrazol-1-yl)phenyl)-3-(5-(2-(1,1-difluoro-2-hydroxyethyl)-3-fluoropyridin-4-yl)-1H-imidazol-2-yl)-2,3,8,8a-tetrahydroindolizin-5(1H)-one] | 8.4 nM | 27.8 nM | 
4 | O=C1C=C(c2c(-n3cnnn3)ccc(Cl)c2F)C[C@H]2CC[C@@H](c3ncc(-c4c[nH]c(C(F)(F)F)n4)[nH]3)N12 [Example 231, (3S,8aR)-7-(3-Chloro-2-fluoro-6-(1H-tetrazol-1-yl)phenyl)-3-(2-(trifluoromethyl)-1H,3′H-[4,4′-biimidazol]-2′-yl)-2,3,8,8a-tetrahydroindolizin-5(1H)-one] |  | 84.6 nM | 37.1 nM
5 | NC(=O)c1sc(-c2c[nH]c([C@@H]3CC[C@H]4CC(c5c(-n6cnnn6)ccc(Cl)c5F)=CC(=O)N43)n2)cc1F [Example 215, 5-(2-((3S,8aS)-7-(3-Chloro-2-fluoro-6-(1H-tetrazol-1-yl)phenyl)-5-oxo-1,2,3,5,8,8a-hexahydroindolizin-3-yl)-1H-imidazol-4-yl)-3-fluorothiophene-2-carboxamide] |  | 117 nM | > 100 nM
6 | CS(=O)(=O)NC(=O)c1sc(-c2c[nH]c(C3CC[C@@H]4CC(c5c(-n6cc(C(F)(F)F)nn6)ccc(Cl)c5F)=CC(=O)N34)n2)cc1F (stereo partly drawn) [Example 192, 5-(2-((8aR)-7-(3-chloro-2-fluoro-6-(4-(trifluoromethyl)-1H-1,2,3-triazol-1-yl)phenyl)-5-oxo-1,2,3,5,8,8a-hexahydroindolizin-3-yl)-1H-imidazol-4-yl)-3-fluoro-N-(methylsulfonyl)thiophene-2-carboxamide] | 5.4 nM | 29.5 nM | 
7 | Nc1ccc(-c2cnc([C@@H]3CC[C@@H]4CC(c5c(-n6cnnn6)ccc(Cl)c5F)=CC(=O)N43)[nH]2)c(Cl)n1 [Example 354, (3S,8aR)-3-[5-(6-amino-2-chloro-3-pyridyl)-1H-imidazol-2-yl]-7-[3-chloro-2-fluoro-6-(tetrazol-1-yl)phenyl]-2,3,8,8a-tetrahydro-1H-indolizin-5-one] |  | 2.6 nM | 0.2 nM
8 | CC1(C)C[C@@H](c2ncc(-c3ccc(N)nc3Cl)[nH]2)N2C(=O)C=C(c3c(-n4cnnn4)ccc(Cl)c3F)C[C@H]21 (relative stereo) [Example 338, (3S,8aS)-3-(5-(6-Amino-2-chloropyridin-3-yl)-1H-imidazol-2-yl)-7-(3-chloro-2-fluoro-6-(1H-tetrazol-1-yl)phenyl)-1,1-dimethyl-2,3,8,8a-tetrahydroindolizin-5(1H)-one] | 1 nM | 8.4 nM | 
9 | O=C(Nc1cnc(C(F)(F)F)cc1-c1cnc([C@@H]2CC[C@@H]3CC(c4c(-n5cnnn5)ccc(Cl)c4F)=CC(=O)N32)[nH]1)C1CC1 [Example 241, N-[4-[2-[(3S,8aR)-7-[3-Chloro-2-fluoro-6-(tetrazol-1-yl)phenyl]-5-oxo-2,3,8,8a-tetrahydro-1H-indolizin-3-yl]-1H-imidazol-5-yl]-6-(trifluoromethyl)-3-pyridyl]cyclopropanecarboxamide] |  | 14.9 nM | 3.3 nM

The next lines start with the values.

Row | IC50 (Factor XIa; [1]) | IC50 (human plasma kallikrein) | IC50 (Factor XIa; [2]) | SMILES
10 | 0.2 nM | 1.1 nM |  | O=C1Nc2ccc(-c3cnc([C@@H]4CC[C@@H]5CC(c6c(-n7cnnn7)ccc(Cl)c6F)=CC(=O)N54)[nH]3)cc2CO1 (relative stereo) [Example 277, 6-(2-((3S,8aR)-7-(3-Chloro-2-fluoro-6-(1H-tetrazol-1-yl)phenyl)-5-oxo-1,2,3,5,8,8a-hexahydroindolizin-3-yl)-1H-imidazol-5-yl)-1,4-dihydro-2H-benzo[d][1,3]oxazin-2-one]
11 | 0.2 nM | 0.7 nM |  | NC(=O)c1ccc(-c2cnc([C@@H]3CC[C@@H]4CC(c5c(-n6cnnn6)ccc(Cl)c5F)=CC(=O)N43)[nH]2)s1 (relative stereo) [Example 238, 5-(2-((3*S,8aR)-7-(3-Chloro-2-fluoro-6-(1H-tetrazol-1-yl)phenyl)-5-oxo-1,2,3,5,8,8a-hexahydroindolizin-3-yl)-1H-imidazol-5-yl)thiophene-2-carboxamide]
12 |  | 3.5 nM | 1.3 nM | O=C1Cc2cc(-c3cnc([C@@H]4CC[C@@H]5CC(c6c(-n7cnnn7)ccc(Cl)c6F)=CC(=O)N54)[nH]3)ccc2N1 (single isomer, unassigned) [Example 284]
13 | 60.1 nM | 245 nM |  | Cc1nc([C@@H]2CC[C@@H]3CC(c4c(-n5cnnn5)ccc(Cl)c4F)=CC(=O)N32)[nH]c1-c1ccnc(CO)c1F (single isomer, unassigned) [Example 35]
14 |  | 6.4 nM | 0.5 nM | CC1C[C@@H](c2ncc(-c3ccc(N)nc3F)[nH]2)N2C(=O)C=C(c3c(-n4cnnn4)ccc(Cl)c3F)CC12 (stereo partly drawn) [Example 348, (3S)-3-(5-(6-Amino-2-fluoropyridin-3-yl)-1H-imidazol-2-yl)-7-(3-chloro-2-fluoro-6-(1H-tetrazol-1-yl)phenyl)-1-methyl-2,3,8,8a-tetrahydroindolizin-5(1H)-one]
15 |  | 7.5 nM | 0.4 nM | CS(=O)(=O)Nc1nccc(-c2cnc([C@@H]3CC[C@@H]4CC(c5c(-n6cnnn6)ccc(Cl)c5F)=CC(=O)N43)[nH]2)c1F [Example 367, N-(4-(2-((3S,8aR)-7-(3-chloro-2-fluoro-6-(1H-tetrazol-1-yl)phenyl)-5-oxo-1,2,3,5,8,8a-hexahydroindolizin-3-yl)-1H-imidazol-5-yl)-3-fluoropyridin-2-yl)methanesulfonamide]
16 |  | 8.9 nM | 11.1 nM | O=C1C=C(c2c(-n3cnnn3)ccc(Cl)c2F)C[C@H]2CC[C@@H](c3ncc(-c4ccnc(-n5ccnn5)c4)[nH]3)N12 [Example 85, (3S,8aR)-7-[3-chloro-2-fluoro-6-(tetrazol-1-yl)phenyl]-3-[5-[2-(triazol-1-yl)-4-pyridyl]-1H-imidazol-2-yl]-2,3,8,8a-tetrahydro-1H-indolizin-5-one]
17 |  | 27.3 nM | 3.2 nM | [2H]c1nc([C@@H]2CC[C@@H]3CC(c4c(-n5cnnn5)ccc(Cl)c4F)=CC(=O)N32)[nH]c1-c1ccnc(C([2H])([2H])O)c1F [Example 113, (3S,8aR)-7-[3-Chloro-2-fluoro-6-(tetrazol-1-yl)phenyl]-3-[4-deuterio-5-[2-[dideuterio(hydroxy)methyl]-3-fluoro-4-pyridyl]-1H-imidazol-2-yl]-2,3,8,8a-tetrahydro-1H-indolizin-5-one]
18 |  | 33.7 nM | 2.3 nM | CCOC(=O)Nc1cnccc1-c1c[nH]c([C@@H]2CC[C@H]3CC(c4c(-n5cnnn5)ccc(Cl)c4F)=CC(=O)N32)n1 [Example 263, Ethyl N-[4-[2-[(3S,8aS)-7-[3-chloro-2-fluoro-6-(tetrazol-1-yl)phenyl]-5-oxo-2,3,8,8a-tetrahydro-1H-indolizin-3-yl]-1H-imidazol-4-yl]-3-pyridyl]carbamate]
19 |  | 1.9 nM | 0.5 nM | COc1cc2[nH]cc(-c3cnc([C@@H]4CC[C@@H]5CC(c6c(-n7cnnn7)ccc(Cl)c6F)=CC(=O)N54)[nH]3)c2cn1 [Example 388, (3S,8aR)-7-(3-chloro-2-fluoro-6-(1H-tetrazol-1-yl)phenyl)-3-(5-(6-methoxy-1H-pyrrolo[3,2-c]pyridin-3-yl)-1H-imidazol-2-yl)-2,3,8,8a-tetrahydroindolizin-5(1H)-one]
20 |  | 6.8 nM | 2 nM | O=C1C=C(c2c(-n3cnnn3)ccc(Cl)c2F)C[C@H]2CC[C@@H](c3ncc(-c4ccnc(OC[C@@H]5COCCO5)c4F)[nH]3)N12 (single isomer, unassigned) [Example 157, (3*S,8aR)-3-(5-(2-(((S)-1,4-dioxan-2-yl)methoxy)-3-fluoropyridin-4-yl)-1H-imidazol-2-yl)-7-(3-chloro-2-fluoro-6-(1H-tetrazol-1-yl)phenyl)-2,3,8,8a-tetrahydroindolizin-5(1H)-one]
21 | 22.5 nM | 72.4 nM |  | [2H][C@@]12CC[C@@H](c3ncc(-c4ccnc(CO)c4F)[nH]3)N1C(=O)C=C(c1c(-n3cnnn3)ccc(Cl)c1F)C2 (relative stereo) [Example 48, (3S*,8aS)-7-(3-chloro-2-fluoro-6-(1H-tetrazol-1-yl)phenyl)-3-(5-(3-fluoro-2-(hydroxymethyl)pyridin-4-yl)-1H-imidazol-2-yl)-2,3,8,8a-tetrahydroindolizin-5(1H)-one-8a-d]
